Data reported in patent publication US20210087565A1, “ANTISENSE ANTIBIOTICS AND BACTERIAL SECRETION BASED DELIVERY SYSTEM TO ELIMINATE DRUG-RESISTANT BACTERIA” (priority 2018, published 2021).

Columns and labels:
[1] = test system: intracellular SL1344 S. typhimurium in HeLa cells; experiment: Salmonella infection of HeLa cells and PNA treatment (T3SS-PNA or naked PNA); format: cell-based, Salmonella enterica serovar typhimurium; conditions: for reduction of intra-epithelial Salmonella CFU: PNA delivered via the T3SS, vs no treatment, p<0.05; for reduction of intra-epithelial Salmonella CFU / clearing of infection (in words): 10 μM, 18 hours; for GFP expressing Salmonella in images (in words): T3SS-PNA treatment, compared to no treatment or Naked-PNA treatment; for clearing of infection (in words): naked PNA added exogenously after infection, compared to no treatment
Protocol: FIG. 4. Establishing the bacterial Type III secretion system (T3SS) for PNA transport. (A) Schematic showing enhancement of PNA delivery into HeLa cells using the bacterial T3SS of Salmonella enterica serovar typhimurium (STm) for treatment of an intracellular infection of STm. HeLa cells were seeded and allowed to grow for 24 h. SL1344 GFP STm was added at a MOI of 10:1 and allowed to infect HeLa cells for 45 min following two separate conditions: (Top) No PNA is added during this time, termed here as Naked PNA treatment, (Bottom) PNA is added at the time of infection at t=0 to utilize the T3SS, termed here as T3SS-PNA treatment. The T3SS-PNAs enter Salmonella during 45 minutes of incubation due to transport enhanced by the cell penetrating peptides, followed by entry into host cells via T3SS encoding and PNA carrying STm. (Top and Bottom). After 45 minutes infected HeLa cells are washed and treated with media containing gentamicin for 75 minutes to kill extracellular bacteria. The cells are then incubated for 18 h with media containing gentamicin following the two separate conditions: (Top) PNA supplied after infection for Naked PNA treatment. (Bottom) No PNA is added after infection. Post 18 hours of treatment HeLa cells are fixed for imaging or lysed for Colony forming Unit (CFU) analysis. (B) Representative images of uninfected (Top left), and infected HeLa cells without treatment (Bottom left). Top (right) panels show representative images of infected HeLa cells following Naked-PNA treatment. Bottom (right) panels show representative images of infected HeLa cells following T3SS-PNA treatment. HeLa cells are stained with nucleic stain DAPI (blue), and membrane stain Phalloidin (pink), and green pixels represent intracellular SL1344 S. typhimurium fluorescing GFP (green). […] (C) Intracellular S. typhimurium load (CFU/mL) in presence or absence of treatment. Significant reduction in STm CFU in HeLa cells when PNA is delivered using T3SS.
For all cases, HeLa cells were infected at time t=0 with SL1344 for 45 minutes with a multiplicity of infection (MOI) of bacteria to HeLa cells of approximately 10:1. For the T3SS-PNA treatment method HeLa cells were co-incubated with SL1344 and either α-rpsD or α-lexA for 45 minutes, allowing the PNA to enter the Salmonella while simultaneously transporting the PNA-carrying Salmonella into the HeLa cells using the T3SS. […] Post-infection, the cells were washed and incubated with media containing gentamicin for a period of 75 minutes to remove any extracellular bacteria and/or PNA. For all treatments the media was then replaced with fresh gentamicin containing growth medium, with the naked PNA treatment condition also containing 10 μM PNA, and incubated an additional 18 (FIG. 4A). At the end of 18 hours, cultures were analyzed via imaging or measured by intra-epithelial colony forming units (CFU). […] The present inventors obtained similar results in an infection of mouse osteoblast cells (FIG. 11B).
Salmonella infection of HeLa cells and PNA treatment: For a single infection (FIG. 4), SL1344 cultures were inoculated from a single colony on solid media in to 1 mL of LB media and grown for 16 hours at 37° C. with shaking. Cultures were diluted 1:10 and regrown in LB prior to infection. Bacteria were washed thrice with PBS, optical density at 600 nm measured, and diluted to a multiplicity of infection (MOI) of 10 in Dulbecco PBS (DPBS). MOI is calculated based on an established optical density and colony forming unit (CFU) calibration, and the number of mammalian cells per well at the time of infection approximated based on their doubling time. Mammalian cells were washed thrice with Dulbecco's Phosphate-Buffered Saline (DPBS, Fisher Scientific) prior to infection for 45 minutes 37° C. with controlled humidity. […]

SL1344 = experiment: Effect of 45-minute incubation with PNA on SL1344 viability; format: cell-based, Salmonella enterica serovar typhimurium; conditions: 10 μM, 45 minutes
Protocol: FIG. 13. Effect of 45-minute incubation with PNA treatment during infection. (A) Individual colonies of SL1344 were picked off of solid media and grown for 16 hours in luria broth supplemented with 30 μg/mL streptomycin, diluted 1:10, and regrown for 4 hours. After regrowth bacteria was diluted to a concentration equivalent to a […] multiplicity of infection of 200,000 cells/mL in 100 μL (conditions of HeLa cell infection after 24 hours growth). Cultures were suspended in phosphate buffered saline and treated with 10 μM of either α-lexA, α-rpsD, or plain phosphate buffered saline for 45 minutes before serial dilution, plated on solid media (40 μg/mL streptomycin), and incubated for 16 hours. Colony forming units were counted to enumerate percent infection with respect to no treatment. There is no significant difference (p>0.05) between α-lexA and α-rpsD at 45 minutes of treatment. […] Percent infection was then calculated in comparison to each replicates' no treatment. […]
Effect of PNA after 45 min of incubation during HeLa infection: SL1344 were cultured as described above and split 1:10 and regrown for 4 hours. […] Samples (10 μL) were taken at t=0 (before PNA addition) and t=45 min (after PNA treatment), and serially diluted, plated, and grown for 16 hours at 37° C. and CFU counted.

Substance	reduction of intra-epithelial Salmonella CFU [1] [%]	GFP expressing Salmonella in images (in words) [1]	clearing of infection (in words) [1]	bacterial viability after co-incubation (in words) (SL1344)
α-lexA: 12-mer antisense PNA cGGAATGAAAGC (SEQ ID NO. 17) targeting lexA, conjugated to (KFF)3K cell penetrating peptide via AEEA-linker (antisense CGGAATGAAAGC; all peptide nucleic acid (PNA); (KFF)3K cell-penetrating peptide attached via AEEA linker)	~69±8	evident decrease in GFP expressing Salmonella	not effective in clearing an infection	not long enough for the PNA to decrease bacterial viability
α-rpsD: 12-mer antisense PNA AGAAAATGGCAA (SEQ ID NO. 19) targeting rpsD, conjugated to (KFF)3K cell penetrating peptide via AEEA-linker (all peptide nucleic acid (PNA); (KFF)3K cell-penetrating peptide attached via AEEA linker)	~82±13	evident decrease in GFP expressing Salmonella	not effective in clearing an infection	not long enough for the PNA to decrease bacterial viability
